Measurements taken from patent publication US10913727B2, “Modulators of the integrated stress pathway” (Calico Life Sciences LLC, priority 2016, dated 2021).

System: HEK293T cells carrying the ATF4 luciferase reporter
Assay: ATF4-Luc assay, in vitro model of Vanishing Cell White Matter Disease (VWMD)
Type: cell-based
Conditions: Homo sapiens, HEK-293T, 1 μg/mL tunicamycin, 7 hours, One Glo luminescence
Description: In order to test exemplary compounds of the invention in a cellular context, a stable VWMD cell line was first constructed. The ATF4 reporter was prepared by fusing the human full-length ATF4 5′-UTR (NCBI Accession No. BC022088.2) in front of the firefly luciferase (FLuc) coding sequence lacking the initiator methionine as described in Sidrauski et al (eLife 2013). The construct was used to produce recombinant retroviruses using standard methods and the resulting viral supernatant was used to transduce HEK293T cells, which were then subsequently selected with puromycin to generate a stable cell line.
HEK293T cells carrying the ATF4 luciferase reporter were plated on polylysine coated 384-well plates (Greiner Bio-one) at 30,000 cells per well. Cells were treated the next day with 1 μg/mL tunicamycin and 200 nM of a compound of Formula (I) for 7 hours. Luminescence was measured using One Glo (Promega) as specified by the manufacturer. Cells were maintained in DMEM with L-glutamine supplemented with 10% heat-inactivated FBS (Gibco) and Antibiotic-Antimycotic solution (Gibco).
Table 2 below summarizes the EC50 data obtained using the ATF4-Luc assay for exemplary compounds of the invention.

`Cc1cc(C(=O)NC23CC(NC(=O)COc4ccc(Cl)c(F)c4)(C2)C3)nn1-c1ccc(Cl)cc1` [Compound 112, N-{3-[2-(4-chloro-3-fluorophenoxy)acetamido]bicyclo[1.1.1]pentan-1-yl}-1-(4-chlorophenyl)-5-methyl-1H-pyrazole-3-carboxamide] was tested, and the EC50 was 250 to 1000 nM.
Compound `O=C(COc1ccc(Cl)c(F)c1)NC12CC(NC(=O)c3ccc[nH]3)(C1)C2` [Compound 307, N-{3-[2-(4-chloro-3-fluorophenoxy)acetamido]bicyclo[1.1.1]pentan-1-yl}-1H-pyrrole-2-carboxamide] has an EC50 of 250 to 1000 nM.
Compound `Cc1nc(C(=O)NC23CCC(NC(=O)COc4ccc(Cl)c(F)c4)(CC2)C(O)C3)ccc1F` (stereo not shown) [Compound 917, N-{4-[2-(4-chloro-3-fluorophenoxy)acetamido]-3-hydroxybicyclo[2.2.2]octan-1-yl}-5-fluoro-6-methylpyridine-2-carboxamide] has an EC50 of 50 to 250 nM.
`O=C(COc1ccc(Cl)c(F)c1)NC12CC(NC(=O)c3cnc4cccnn34)(C1)C2` [Compound 760, N-{3-[2-(4-chloro-3-fluorophenoxy)acetamido]bicyclo[1.1.1]pentan-1-yl}imidazo[1,2-b]pyridazine-3-carboxamide] was tested, and the EC50 was greater than 2000 nM.
Compound `N#Cc1cccc(C(=O)NC23CC(NC(=O)COc4ccc(Cl)c(F)c4)(C2)C3)c1` [Compound 366, N-{3-[2-(4-chloro-3-fluorophenoxy)acetamido]bicyclo[1.1.1]pentan-1-yl}-3-cyanobenzamide] has an EC50 of 50 to 250 nM.
Work on `O=C(COc1ccc(Cl)c(F)c1)NC12CCC(NC(=O)c3onc4ccccc34)(CC1)CC2O` (stereo not shown) [Compound 328, N-{4-[2-(4-chloro-3-fluorophenoxy)acetamido]-3-hydroxybicyclo[2.2.2]octan-1-yl}-2,1-benzoxazole-3-carboxamide] yielded an EC50 of 1000 to 2000 nM.
`CCc1cc(C(=O)NC23CC(NC(=O)COc4ccc5c(c4)OC(F)(F)O5)(C2)C3)n(C)n1` [Compound 399, N-(3-{2-[(2,2-difluoro-2H-1,3-benzodioxol-5-yl)oxy]acetamido}bicyclo[1.1.1]pentan-1-yl)-3-ethyl-1-methyl-1H-pyrazole-5-carboxamide] showed an EC50 of 250 to 1000 nM.
Compound `CC(=O)Nc1ccc(C(=O)NC23CC(NC(=O)COc4ccc(Cl)c(F)c4)(C2)C3)cc1` [Compound 816, 4-acetamido-N-{3-[2-(4-chloro-3-fluorophenoxy)acetamido]bicyclo[1.1.1]pentan-1-yl}benzamide] has an EC50 greater than 2000 nM.
Compound `Cc1nnsc1C(=O)NC12CC(NC(=O)COc3ccc(Cl)c(F)c3)(C1)C2` [Compound 845, N-{3-[2-(4-chloro-3-fluorophenoxy)acetamido]bicyclo[1.1.1]pentan-1-yl}-4-methyl-1,2,3-thiadiazole-5-carboxamide] has an EC50 greater than 2000 nM.
For `CN(C)c1cccc(C(=O)NC23CC(NC(=O)COc4ccc(Cl)c(F)c4)(C2)C3)c1` [Compound 534, N-{3-[2-(4-chloro-3-fluorophenoxy)acetamido]bicyclo[1.1.1]pentan-1-yl}-3-(dimethylamino)benzamide], the EC50 was 250 to 1000 nM.
`Cc1cc(C(=O)NC23CCC(NC(=O)COc4ccc(Cl)c(F)c4)(CC2)CC3)on1` [Compound 444, N-{4-[2-(4-chloro-3-fluorophenoxy)acetamido]bicyclo[2.2.2]octan-1-yl}-3-methyl-1,2-oxazole-5-carboxamide] gave an EC50 greater than 2000 nM.
`O=C(COc1ccc(Cl)c(F)c1)NC12CCC(NC(=O)c3cnc(C(F)F)cn3)(CC1)C(O)C2` (stereo not shown) [Compound 195, N-{4-[2-(4-chloro-3-fluorophenoxy)acetamido]-2-hydroxybicyclo[2.2.2]octan-1-yl}-5-(difluoromethyl)pyrazine-2-carboxamide] was tested, and the EC50 was less than 50 nM.
`O=C(COc1ccc(Cl)c(F)c1)NC12CC(NC(=O)c3ccc(Cn4cncn4)cc3)(C1)C2` [Compound 849, N-{3-[2-(4-chloro-3-fluorophenoxy)acetamido]bicyclo[1.1.1]pentan-1-yl}-4-[(1H-1,2,4-triazol-1-yl)methyl]benzamide] was tested, and the EC50 was 1000 to 2000 nM.
`O=C(COc1ccc(Cl)c(Cl)c1)NC12CC(NC(=O)c3cnc(C(F)(F)F)s3)(C1)C2` [Compound 646, N-{3-[2-(3,4-dichlorophenoxy)acetamido]bicyclo[1.1.1]pentan-1-yl}-2-(trifluoromethyl)-1,3-thiazole-5-carboxamide] gave an EC50 of 50 to 250 nM.
For `O=C(COc1ccc(Cl)c(F)c1)NC12CC(NC(=O)c3cnc4ccccn34)(C1)C2` [Compound 258, N-{3-[2-(4-chloro-3-fluorophenoxy)acetamido]bicyclo[1.1.1]pentan-1-yl}imidazo[1,2-a]pyridine-3-carboxamide], the EC50 was 250 to 1000 nM.
In the case of `Cc1nc(C(=O)NC23CC(NC(=O)COc4ccc(Cl)c(F)c4)(C2)C3)c(C)o1` [Compound 795, N-{3-[2-(4-chloro-3-fluorophenoxy)acetamido]bicyclo[1.1.1]pentan-1-yl}-2,5-dimethyl-1,3-oxazole-4-carboxamide], the EC50 is reported as greater than 2000 nM.
`Cn1nccc1C(=O)NC12CCC(NC(=O)COc3ccc(Cl)c(F)c3)(CC1)C(O)C2` (stereo not shown) [Compound 602, N-{4-[2-(4-chloro-3-fluorophenoxy)acetamido]-3-hydroxybicyclo[2.2.2]octan-1-yl}-1-methyl-1H-pyrazole-5-carboxamide] was tested, and the EC50 was 250 to 1000 nM.
Work on `Cc1ccncc1C(=O)NC12CC(NC(=O)COc3ccc(Cl)c(Cl)c3)(C1)C2` [Compound 736, N-{3-[2-(3,4-dichlorophenoxy)acetamido]bicyclo[1.1.1]pentan-1-yl}-4-methylpyridine-3-carboxamide] yielded an EC50 greater than 2000 nM.
Compound `O=C(COc1ccc(Cl)c(F)c1)NC12CC(NC(=O)c3ccc4oc(=O)ccc4c3)(C1)C2` [Compound 396, N-{3-[2-(4-chloro-3-fluorophenoxy)acetamido]bicyclo[1.1.1]pentan-1-yl}-2-oxo-2H-1-benzopyran-6-carboxamide] has an EC50 of 250 to 1000 nM.
With `O=C(COc1ccc(Cl)c(F)c1)NC12CC(NC(=O)c3cnc(-c4ccc(Cl)c(F)c4)o3)(C1)C2` [Compound 105, N-{3-[2-(4-chloro-3-fluorophenoxy)acetamido]bicyclo[1.1.1]pentan-1-yl}-2-(4-chloro-3-fluorophenyl)-1,3-oxazole-5-carboxamide] the EC50 was less than 50 nM.
`N#Cc1ccc(C(=O)NC23CC(NC(=O)COc4ccc(Cl)c(F)c4)(C2)C3)cc1F` [Compound 371, N-{3-[2-(4-chloro-3-fluorophenoxy)acetamido]bicyclo[1.1.1]pentan-1-yl}-4-cyano-3-fluorobenzamide] showed an EC50 of 50 to 250 nM.
`Cc1cc(C(=O)NC23CCC(NC(=O)COc4ccc(Cl)c(Cl)c4)(CC2)[C@@H](O)C3)on1` [Compound 759, N-{(3S)-4-[2-(3,4-dichlorophenoxy)acetamido]-3-hydroxybicyclo[2.2.2]octan-1-yl}-3-methyl-1,2-oxazole-5-carboxamide] was tested, and the EC50 was less than 50 nM.
With `O=C(COc1ccc(Cl)c(F)c1)NC12CC(NC(=O)c3ccc(OC(F)F)nc3)(C1)C2` [Compound 440, N-{3-[2-(4-chloro-3-fluorophenoxy)acetamido]bicyclo[1.1.1]pentan-1-yl}-6-(difluoromethoxy)pyridine-3-carboxamide] the EC50 was 50 to 250 nM.
`Cn1cc(C(=O)NC23CC(NC(=O)COc4ccc(Cl)c(F)c4)(C2)C3)ccc1=O` [Compound 818, N-{3-[2-(4-chloro-3-fluorophenoxy)acetamido]bicyclo[1.1.1]pentan-1-yl}-1-methyl-6-oxo-1,6-dihydropyridine-3-carboxamide] was tested, and the EC50 was greater than 2000 nM.
In the case of `COc1cscc1C(=O)NC12CC(NC(=O)COc3ccc(Cl)c(F)c3)(C1)C2` [Compound 557, N-{3-[2-(4-chloro-3-fluorophenoxy)acetamido]bicyclo[1.1.1]pentan-1-yl}-4-methoxythiophene-3-carboxamide], the EC50 is reported as greater than 2000 nM.
Compound `Cc1nc2ccc(C(=O)NC34CC(NC(=O)COc5ccc(Cl)c(F)c5)(C3)C4)cc2s1` [Compound 774, N-{3-[2-(4-chloro-3-fluorophenoxy)acetamido]bicyclo[1.1.1]pentan-1-yl}-2-methyl-1,3-benzothiazole-6-carboxamide] has an EC50 greater than 2000 nM.
Work on `Cn1nc(C(=O)NC23CC(NC(=O)COc4ccc(Cl)c(F)c4)(C2)C3)cc1-c1ccccc1` [Compound 345, N-{3-[2-(4-chloro-3-fluorophenoxy)acetamido]bicyclo[1.1.1]pentan-1-yl}-1-methyl-5-phenyl-1H-pyrazole-3-carboxamide] yielded an EC50 of 50 to 250 nM.
`O=C(COc1ccc(Cl)c(F)c1)NC12CC(Nc3ccc(C(F)(F)F)cn3)(C1)C2` [Compound 103, 2-(4-chloro-3-fluorophenoxy)-N-(3-{[5-(trifluoromethyl)pyridin-2-yl]amino}bicyclo[1.1.1]pentan-1-yl)acetamide] showed an EC50 of 1000 to 2000 nM.
`O=C(COc1ccc(Cl)cc1)NC12CC(Nc3noc(-c4ccc(Cl)cc4)n3)(C1)C2` [Compound 287, 2-(4-chlorophenoxy)-N-(3-{[5-(4-chlorophenyl)-1,2,4-oxadiazol-3-yl]amino}bicyclo[1.1.1]pentan-1-yl)acetamide] showed an EC50 of 50 to 250 nM.
With `O=C(COc1ccc(Cl)c(F)c1)NC12CC(NC(=O)c3cnc(C4CCOCC4)o3)(C1)C2` [Compound 139, N-{3-[2-(4-chloro-3-fluorophenoxy)acetamido]bicyclo[1.1.1]pentan-1-yl}-2-(oxan-4-yl)-1,3-oxazole-5-carboxamide] the EC50 was 250 to 1000 nM.
In the case of `O=C(COc1ccc(Cl)c(F)c1)NC12CC(NC(=O)c3ccc4snnc4c3)(C1)C2` [Compound 800, N-{3-[2-(4-chloro-3-fluorophenoxy)acetamido]bicyclo[1.1.1]pentan-1-yl}-1,2,3-benzothiadiazole-5-carboxamide], the EC50 is reported as greater than 2000 nM.
